Measured values taken from article PMC6952414 (Nature Communications, 2020).
Where “and” joins values, the source holds several entries; their conditions need not be identical. Equal values may be shown once. Read-outs that look alike come from different tables or passages of the source. Positions of bridges follow the written chain, without caps; N, C: chain ends. Non-standard residues stand in square brackets, D forms with d. Chains are numbered I, II in the order given. No end group written: not given here. Ahx = NCCCCCC(=O)O

Assays:
MDCK cells [1] = conditions: 5 mM for 16 h
IAV strain PR8 [2] = system: IAV strain PR8
IAV strain PR8 [3] = assay type: cell-based, IAV H1N1 strain A/Puerto Rico/8/1934 (PR8)
IAV strain PR8 [4] = test: microbe, parasite or virus in culture; conditions: Influenza A virus, PR8, MDCK, read-out: EC50 (μM), IAV cytopathicity
IAV strain PR8 [5] = system: IAV strain PR8; design: species or system BALB/c mice; conditions: mouse, in vivo
IAV strain PR8 [6] = assay type: cell-based, IAV H1N1 strain A/Puerto Rico/8/1934 (PR8); remark: listed apart in the source
IAV strain PR8 [7] = assay type: cell-based, IAV H1N1 strain A/Puerto Rico/8/1934 (PR8); remark: listed apart in the source
virus NP mRNA = assay type: cell-based, IAV H1N1 strain A/Puerto Rico/8/1934 (PR8)
IAV strain PR8 [8] = assay type: cell-based, IAV H1N1 strain A/Puerto Rico/8/1934 (PR8); remark: listed apart in the source
IAV strain PR8 [9] = assay type: cell-based, IAV H1N1 strain A/Puerto Rico/8/1934 (PR8); remark: listed apart in the source
LC3-II = assay type: cell-based, canine
HA1/HA2 = assay type: binding, IAV H1N1 strain A/Puerto Rico/8/1934 (PR8)
[10] = system: recombinant HA / α2-6sialyllactose-PAA; assay type: binding, IAV H1N1 strain A/Puerto Rico/8/1934 (PR8)
PR8-HA0 = assay type: binding, IAV H1N1 strain A/Puerto Rico/8/1934 (PR8)
MDCK cells [11] = system: MDCK cells
IAV strain PR8 [12] = assay type: cell-based, IAV H1N1 strain A/Puerto Rico/8/1934 (PR8); remark: listed apart in the source
HA [13] = assay type: biochemical, IAV H1N1 strain A/Puerto Rico/8/1934 (PR8)
[14] = system: recombinant HA derived from H5N1 A/chicken/Yamaguchi/7/2004 strain; assay type: binding, Influenza A virus H5N1
[15] = biological target: immobilized recombinant HA (Influenza A virus, UniProt P03452); assay type: binding, IAV H1N1 strain A/Puerto Rico/8/1934 (PR8)
IAV strain PR8 [16] = assay type: cell-based, IAV H1N1 strain A/Puerto Rico/8/1934 (PR8); remark: listed apart in the source
cell surface HA = assay type: cell-based, IAV H1N1 strain A/Puerto Rico/8/1934 (PR8)
IAV strain PR8 [17] = assay type: cell-based, IAV H1N1 strain A/Puerto Rico/8/1934 (PR8); remark: listed apart in the source
[18] = system: IAV particles (strain PR8); assay type: biochemical, IAV H1N1 strain A/Puerto Rico/8/1934 (PR8)
PR8-HA1/HA2 = assay type: binding, IAV H1N1 strain A/Puerto Rico/8/1934 (PR8)
HA [19] = assay type: cell-based, IAV H1N1 strain A/Puerto Rico/8/1934 (PR8)
IAV strain PR8 [20] = assay type: cell-based, IAV H1N1 strain A/Puerto Rico/8/1934 (PR8); remark: listed apart in the source
IAV strain PR8 [21] = system: IAV strain PR8; remark: listed apart in the source
IAV strain PR8 [22] = assay type: cell-based, IAV H1N1 strain A/Puerto Rico/8/1934 (PR8); remark: listed apart in the source

Sequence of immobilized recombinant HA (P03452 18-565 limits assumed): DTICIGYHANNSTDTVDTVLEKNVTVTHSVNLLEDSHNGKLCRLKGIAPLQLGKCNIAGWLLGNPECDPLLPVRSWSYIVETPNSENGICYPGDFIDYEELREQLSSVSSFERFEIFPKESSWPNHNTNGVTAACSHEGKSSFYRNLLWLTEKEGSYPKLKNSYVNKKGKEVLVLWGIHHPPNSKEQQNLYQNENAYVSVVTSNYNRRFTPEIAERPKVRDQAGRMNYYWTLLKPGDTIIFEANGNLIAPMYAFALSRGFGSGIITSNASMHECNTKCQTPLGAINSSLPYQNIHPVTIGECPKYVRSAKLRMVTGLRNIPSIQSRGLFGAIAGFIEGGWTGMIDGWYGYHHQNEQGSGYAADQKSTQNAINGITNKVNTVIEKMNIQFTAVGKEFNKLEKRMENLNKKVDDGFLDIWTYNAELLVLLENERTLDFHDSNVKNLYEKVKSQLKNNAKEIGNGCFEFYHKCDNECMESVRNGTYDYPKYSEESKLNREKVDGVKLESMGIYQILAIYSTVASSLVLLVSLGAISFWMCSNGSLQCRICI

3-MA
cell viability of uninfected MDCK cells (in words) (MDCK cells [1]): did not affect the cell viability

CSCC[C@H](N)C(=O)N[C@@H](C)C(=O)N[C@@H](C)C(=O)NCCCCCC(=O)NCCCC[C@H](NC(=O)CCCCCNC(=O)[C@H](C)NC(=O)[C@H](C)NC(=O)[C@@H](N)CCSC)C(=O)NCCCC[C@H](NC(=O)[C@H](CCCCNC(=O)CCCCCNC(=O)[C@H](C)NC(=O)[C@H](C)NC(=O)[C@@H](N)CCSC)NC(=O)CCCCCNC(=O)[C@H](C)NC(=O)[C@H](C)NC(=O)[C@@H](N)CCSC)C(=O)O [MA-tet]
inhibition of IAV cytopathicity (in words) (IAV strain PR8 [2]): did not inhibit the cytopathicity

C[C@@H]1COCCN1c1cc(=O)n2c(n1)N(Cc1cncc(Cl)c1)[C@H](C(F)(F)F)CC2 [SAR405]
effect on the dose-dependent anti-viral activity of PVF-tet (in words) (IAV strain PR8 [3]): suppressed the dose-dependent anti-viral activity of PVF-tet

CC(=O)N[C@H]1[C@H]([C@H](O)[C@H](O)CO)OC(C(=O)O)=C[C@@H]1N=C(N)N [Zanamivir, zanamivir]
EC50 (IAV strain PR8 [4]): 0.2 µM | body weight loss (in words) (IAV strain PR8 [5]): attenuated the weight loss | mice rescued from mortality (IAV strain PR8 [5]): 100%

CO/C1=C\C(C)=C\[C@@H](C)[C@@H](O)[C@@H](C)C/C(C)=C/C=C/[C@H](OC)[C@@H]([C@@H](C)[C@@H](O)[C@H](C)[C@@]2(O)C[C@@H](O)[C@H](C)[C@@H](C(C)C)O2)OC1=O [bafilomycin A1]
time of administration after initial IAV infection at which cytopathicity is still inhibited (IAV strain PR8 [6]): < 5 h | NP-positive cells (%) (IAV strain PR8 [7]): 5.3% and 2.2% and 2.8% and 3.8% | virus entry into target cells, NP-positive cells (in words) (IAV strain PR8 [7]): completely inhibited virus entry into cells | NP mRNA synthesis (in words) (virus NP mRNA): efficiently inhibited both events | Relative mRNA expression (fold increase) (virus NP mRNA): 0.134 fold increase and 0.131 fold increase and 0.156 fold increase and 0.244 fold increase and 0.237 fold increase and 0.138 fold increase and 0.155 fold increase | fusion process monitored by fluorescently labeled virus (in words) (IAV strain PR8 [8]): efficiently inhibited both events

I: MARRPVNHFA[Ahx]KK-NH2 / II: MARRPVNHFA[Ahx]K / III: MARRPVNHFA[Ahx] / IV: MARRPVNHFA[Ahx] (amide I:12-IV:C, I:13-II:C, II:12-III:C) [PVF-tet]
fold increase of virus titer over the initial virus titer (IAV strain PR8 [9]): about 50 fold | inhibition of IAV propagation (in words) (IAV strain PR8 [9]): inhibited IAV propagation to a greater degree than fetuin | formation of LC3-II (in words) (LC3-II): further enhanced the formation of LC3-II | time of administration after initial IAV infection at which cytopathicity is still inhibited (IAV strain PR8 [6]): up to 9 h | effect of proteolytic cleavage of recombinant HA into HA1/HA2 on binding (in words) (HA1/HA2): reduced the binding of PVF-tet to HA | inhibition of the interaction between HA and α2,6-sialyllactose polymer (in words) [10]: also efficiently inhibited the binding of HA to α2-6 sialyllactose-polymer | binding to non-infectious IAV particles with HA0 (in words) (PR8-HA0): did bind with remarkable efficacy to non-infectious IAV particles with HA0 | effect of FBS on incorporation into cells (in words) (MDCK cells [11]): enhanced by the presence of fetal bovine serum (FBS) | incorporation into MDCK cells (in words) (MDCK cells [11]): can be incorporated into MDCK cells at 37 °C | anti-viral activity in ULK1-knockout clones (in words) (IAV strain PR8 [12]): significantly suppressed in the clones | NP-positive cells (%) (IAV strain PR8 [7]): 51.6% and 50.5% and 44.6% and 50.0% | virus entry into target cells, NP-positive cells (in words) (IAV strain PR8 [7]): did not inhibit virus entry into target cells | formation of highly clustered HA (in words) (HA [13]): induced the formation of highly clustered HA | binding to recombinant H5N1 HA (in words) [14]: bound | Rmax [15]: 1004 RU | binding to HA (in words) [15]: bound to HA with high affinity | NP mRNA synthesis (in words) (virus NP mRNA): did not affect | Cell viabilitiy(%) (IAV strain PR8 [16]): 136.2% and 97.5% and 109.1% and 71.8% and 88.5% and 71.7% | anti-IAV activity in the ABCA3-knockout clone (in words) (IAV strain PR8 [16]): retained its anti-IAV activity | amount of HA on the plasma membrane (in words) (cell surface HA): marked reduction of the amount of HA that was present on the plasma membrane | EC50 (IAV strain PR8 [2]; 24 h): 1400 nM | cell viability (IAV strain PR8 [17]): 103 ± 9% and 85 ± 9% | inhibition of cytopathicity when treated from 2 h post-infection for limited periods (in words) (IAV strain PR8 [17]): still efficiently inhibited the cytotoxicity | inhibition of IAV-induced hemagglutination (in words) [18]: did not inhibit IAV-induced hemagglutination | binding to infectious IAV particles with HA1/HA2 (in words) (PR8-HA1/HA2): did not bind to infectious IAV particles with HA1/HA2 | amount of newly synthesized HA in infected cells (in words) (HA [19]): accumulated in a time-dependent manner | anti-viral activity in PIK3C3-knockout clones (in words) (IAV strain PR8 [20]): significantly suppressed in the clones | inhibition of IAV cytopathicity in Caco-2 cells (in words) (IAV strain PR8 [21]): equally inhibited cytopathicity induced by both low and high MOI infection | fusion process monitored by fluorescently labeled virus (in words) (IAV strain PR8 [8]): did not affect the fusion process

RRPVNHD [PVD-tet]
incorporation into MDCK cells (in words) (MDCK cells [11]): less cell-penetrating | inhibition of IAV cytopathicity (in words) (IAV strain PR8 [2]): failed to inhibit IAV cytopathicity

RRRVNHH [RVH-tet]
inhibition of IAV cytopathicity (in words) (IAV strain PR8 [2]): efficiently inhibited the cytopathicity in a dose-dependent manner

asialofetuin [reference compound]
binding to non-infectious IAV particles with HA0 (in words) (PR8-HA0): exhibited no binding | binding to infectious IAV particles with HA1/HA2 (in words) (PR8-HA1/HA2): exhibited no binding

fetuin
Virus propagation (fold increase) (IAV strain PR8 [9]): 350.0 fold increase and 466.7 fold increase and 483.3 fold increase | effect of proteolytic cleavage of recombinant HA into HA1/HA2 on binding (in words) (HA1/HA2): also reduced by the cleavage of HA | inhibition of IAV cytopathicity at low MOI (in words) (IAV strain PR8 [22]): had the greatest inhibitory effect | binding to non-infectious IAV particles with HA0 (in words) (PR8-HA0): exhibited much more binding | inhibition of IAV cytopathicity (in words) (IAV strain PR8 [2]): showed no inhibitory effect at all | inhibition of IAV-induced hemagglutination (in words) [18]: efficiently inhibited the activity
